Assay [1] concerns histamine-evoked Ca^2+ signals. In kind it is cell-based, human. Conditions: for IC50: Homo sapiens.
Assay [2] deals with AC activity. In words: cAMP accumulation in human ASMC, HitHunter cAMP HS+ assay. In kind it is cell-based. Background: Cyclic AMP is a second messenger, typically raised through Gs and lowered through Gi signalling.
Assay [3] has as its system EP2 receptor. The note with it: 2000, cited from earlier work; for pKD, EP2 receptor: reported affinity, ref Abramovitz et al.
In assay [4] the test system is intracellular Ca^2+ stores. Put plainly: Ca2+ content of the intracellular stores of human ASMC. In kind it is cell-based. Conditions: 2-APB, stores assessed with ionomycin 1 μM.
For assay [5], the system named is AC activity. Put plainly: cAMP accumulation in human ASMC, 3H-adenine-labelling assay. Type of assay: cell-based. The note with it: read-out: pEC50 for cAMP accumulation (converted).
For assay [6], the system named is human ASMC. In words: Direct effect of drug alone on [Ca2+]i in human ASMC. In kind it is cell-based.
Assay [7] concerns the target EP2 receptors (Homo sapiens, UniProt P43116). Type of assay: cell-based.
Assay [8] has as its target EP4 receptors (Homo sapiens, UniProt P35408). Type of assay: cell-based.
Assay [9] concerns EP4 receptor. Conditions: cited from earlier work.
The mark [10] stands for this setting: read-out: [Ca2+]i, pIC50, Control (converted).

Where two headings read alike, the source gives them in different places.

EP4 receptors, sequence (P35408 whole entry): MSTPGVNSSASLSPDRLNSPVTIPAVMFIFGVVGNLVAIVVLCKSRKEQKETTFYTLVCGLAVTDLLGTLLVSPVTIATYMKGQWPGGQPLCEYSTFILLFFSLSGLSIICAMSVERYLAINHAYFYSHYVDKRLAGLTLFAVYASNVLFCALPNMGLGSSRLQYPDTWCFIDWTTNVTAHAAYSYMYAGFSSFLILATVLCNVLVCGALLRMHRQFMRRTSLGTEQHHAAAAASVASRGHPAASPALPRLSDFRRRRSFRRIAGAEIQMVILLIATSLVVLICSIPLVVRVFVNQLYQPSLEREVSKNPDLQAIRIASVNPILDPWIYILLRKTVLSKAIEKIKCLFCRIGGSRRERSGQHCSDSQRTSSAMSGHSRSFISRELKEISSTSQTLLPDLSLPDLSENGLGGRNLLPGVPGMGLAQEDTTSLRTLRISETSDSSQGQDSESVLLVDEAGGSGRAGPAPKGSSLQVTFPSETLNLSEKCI
EP2 receptors, sequence (P43116 whole entry): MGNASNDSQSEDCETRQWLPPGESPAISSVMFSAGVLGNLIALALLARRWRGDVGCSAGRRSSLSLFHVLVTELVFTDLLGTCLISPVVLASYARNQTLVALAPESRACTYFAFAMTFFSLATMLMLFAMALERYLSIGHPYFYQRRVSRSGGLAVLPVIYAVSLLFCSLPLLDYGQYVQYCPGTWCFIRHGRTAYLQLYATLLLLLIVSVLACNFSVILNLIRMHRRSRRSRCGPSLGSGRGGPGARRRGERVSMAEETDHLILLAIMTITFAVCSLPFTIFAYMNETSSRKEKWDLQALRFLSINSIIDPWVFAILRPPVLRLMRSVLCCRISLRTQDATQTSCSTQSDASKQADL

As to `CS(=O)(=O)NC(=O)CCC/C=C\C[C@H]1C(=O)C[C@@H](O)[C@@H]1/C=C/[C@@H](O)COc1ccccc1` [Sulprostone, sulprostone], the “effect on histamine-evoked Ca2+ signals” value in assay [1] (sulprostone 1 μM, histamine 3 μM) was “no effect”.
As for `CCCC1([C@H](O)C/C=C/[C@H]2[C@H](O)CC(=O)[C@@H]2CCCCCCC(=O)OC)CCC1` [Butaprost], in [2] (butaprost vs PGE2), the “EC50 for cAMP accumulation relative to PGE2 (higher)” value is about 10 fold. The IC50 in assay [1] (setting [10]) was 6.03 nM. Also, in assay [1] (pIC50 8.22 vs pKD 7.04), the “difference between functional pIC50 and published binding affinity (pKD)” value is listed as “more than 10 fold”. In addition, the “affinity for human EP2 receptors relative to PGE2 (lower)” value in assay [3] (ref Narumiya et al., 1999, Abramovitz et al.) was about 20 fold. Moreover, the “pKD, EP2 receptor” value in assay [3] is reported as 7.04.
Take `CC(C)[C@@]1(O)[C@@H](OC(=O)c2ccc[nH]2)[C@@]2(O)[C@@]3(C)C[C@]4(O)O[C@@]5([C@H](O)[C@@H](C)CC[C@]35O)[C@@]2(O)[C@@]14C` [ryanodine, Ryanodine]: the “effect on responses to histamine” value in [1] (ryanodine 100 μM, 5 min) is given as “unaffected”.
With `NCCOB(c1ccccc1)c1ccccc1` [2-APB, 2-aminoethoxydiphenyl borate], the “effect on Ca2+ signals evoked by histamine” value in assay [1] (2-APB 5 min before, histamine 3 μM or 1 mM, Ca2+-free HBS) is recorded as “concentration-dependent inhibition”. Also, the “effect on Ca2+ content of the intracellular stores” value in assay [4] is on record as “substantial loss”.
For the compound `CC(C)OC(=O)CCC/C=C\C[C@@H]1[C@@H](CC[C@@H](O)CCc2ccccc2)[C@H](O)C[C@@H]1O` [latanoprost], the “effect on histamine-evoked Ca2+ signals” value in [1] (latanoprost 100 nM, histamine 3 μM) was “no effect”.
Regarding `CCCCC[C@H](O)/C=C/[C@H]1[C@H](O)CC(=O)[C@@H]1C/C=C\CCCC(=O)O` [PGE2, Prostaglandin E2], in assay [5], the EC50 was 214 nM. The IC50 in assay [1] (setting [10]) was 0.537 nM. In addition, the “effect on [Ca2+]i” value in assay [6] (PGE2 alone (10 μM)) is recorded as “no effect”.
For `COc1ccc([C@H]2N[C@H](C(=O)O)Cc3c2[nH]c2ccccc32)cc1CN1CCN(c2ccccc2F)CC1` [trans-Ned-19, (1R,3S)-1-[3-[[4-(2-fluorophenyl)piperazin-1-yl]methyl]-4-methoxyphenyl]-2,3,4,9-tetrahydro-1H-pyrido[3,4-b]indole-3-carboxylic acid], in assay [1] (trans-Ned-19 1 μM, 5 min), the “effect on responses to histamine” value was “unaffected”.
`COc1ccc2c(c1)CC[C@@H]1[C@@H]2CC[C@]2(C)[C@@H](NCCCCCCN3C(=O)CCC3=O)CC[C@@H]12` [U73343, 1-[6-[[(17β)-3-methoxyestra-1,3,5(10)-trien-17-yl]amino]hexyl]-2,5-pyrrolidinedione]: the “effect on Ca2+ signals evoked by histamine” value in assay [1] (U73343 ≤10 μM, histamine 100 μM) is given as “no effect”.
One may read the Kd as the equilibrium constant for the complex coming apart. Higher therefore signals lower affinity. In [7], `CC(C)Oc1ccc2c(=O)c3cc(C(=O)O)ccc3oc2c1` [AH6809, 6-isopropoxy-9-oxoxanthene-2-carboxylic acid] gave a Kd of 2510 nM. Further, in [1] (AH6809 30 μM, histamine 3 μM), the “ΔpIC50 (pIC50 control − pIC50 +antagonist) of L902,688” value is on record as −0.01 ± 0.27, the “ΔpIC50 (pIC50 control − pIC50 +antagonist) of PGE2” value is 0.62 ± 0.13 and the “ΔpIC50 (pIC50 control − pIC50 +antagonist) of butaprost” value was found to be 1.12 ± 0.15. For the same compound, the “pKD, EP2 receptor” value in assay [3] is 5.9.
As for `COc1ccc2c(c1)c(CC(=O)O)c(C)n2C(=O)c1ccc(Cl)cc1` [indomethacin, Indomethacin], the “effect on histamine-evoked Ca2+ signals” value in [1] (indomethacin 10 μM, 5 min) is given as “nor indomethacin, an inhibitor of cyclooxygenases (Figure 1F), had any effect”.
Turning to `CCOc1c2c(c(OCC)c3ccccc13)C(=O)N(c1ccc(CC(=O)NS(=O)(=O)c3ccccc3)cc1)C2` [GW627368X, 2-[4-(4,9-diethoxy-3-oxo-1H-benzo[f]isoindol-2-yl)phenyl]-N-phenylsulfonylacetamide], in assay [1] (GW627368X 1 μM, histamine 3 μM), the “ΔpIC50 (pIC50 control − pIC50 +antagonist) of L902,688” value turned out to be 2.20 ± 0.28, the “ΔpIC50 (pIC50 control − pIC50 +antagonist) of PGE2” value was 0.24 ± 0.08 and the “ΔpIC50 (pIC50 control − pIC50 +antagonist) of butaprost” value was −0.21 ± 0.14. Besides, the dissociation constant (Kd) in [8] was 6.31 nM.
Regarding `Cn1c(=O)c2c(ncn2C)n(C)c1=O` [caffeine], in [6] (caffeine 10 mM), the “effect on [Ca2+]i” value is listed as “no effect”.
With `O=C(O)CCCCCC[C@H]1C(=O)NC(=O)N1CCC(O)C1CCCCC1` (stereo partly drawn) [BW 245C, (4S)-(3-[(3R,S)-3-cyclohexyl-3-hydroxypropyl]-2,5-dioxo)-4-imidazolidineheptanoic acid], the “effect on histamine-evoked Ca2+ signals” value in assay [1] (BW 245C 10 nM, histamine 3 μM) is recorded as “no effect”.
Regarding `O=C1CC[C@H](/C=C/[C@@H](O)C(F)(F)c2ccccc2)N1CCCCCCc1nn[nH]n1` [L902,688, 5-[(1E,3R)-4,4-difluoro-3-hydroxy-4-phenyl-1-buten-1-yl]-1-[6-(2H-tetrazol-5R-yl)hexyl]-2-pyrrolidinone], the “affinity for EP4 receptors relative to PGE2 (greater)” value in assay [9] (ref Supporting Information Table S4) is given as “approximately twofold”. Moreover, the “pKD, EP4 receptor” value in assay [9] (reported affinity, ref Young et al., 2004) is recorded as 9.4. Besides, the “cAMP, pEC50, Control” value in [2] (HitHunter HS+ assay, 5 min) is on record as 7.76 ± 0.11 (3) /M. Also, the “[Ca2+]i, pIC50, Control” value in assay [1] (histamine 3 μM, agonist alone) is reported as 9.52 ± 0.25 (3) /M.
Take `COc1ccc2c(c1)CC[C@@H]1[C@@H]2CC[C@]2(C)[C@@H](NCCCCCCN3C(=O)C=CC3=O)CC[C@@H]12` [U73122, 1-[6-[[(17β)-3-methoxyestra-1,3,5(10)-trien-17-yl]amino]hexyl]-1H-pyrrole-2,5-dione]: the IC50 in [1] (read-out: pIC50 for inhibition of Ca2+ signals evoked by histamine (converted)) is 1740 nM.

(Values after article PMC3724117 (British Journal of Pharmacology, 2013).)
